# Data taken from patent publication US8012998B2, “Pyrrolidine aryl-ether as NK-3 receptor antagonists” (Hoffmann—LA Roche Inc., priority 2007, dated 2011).
# Molecular target: T1, human NK3 receptor (Homo sapiens, UniProt P29371)
# T1 construct: expressed in transfected cells; host or cells: HEK293 cells (transient expression), membrane preparation
# T1 sequence (P29371 1-465): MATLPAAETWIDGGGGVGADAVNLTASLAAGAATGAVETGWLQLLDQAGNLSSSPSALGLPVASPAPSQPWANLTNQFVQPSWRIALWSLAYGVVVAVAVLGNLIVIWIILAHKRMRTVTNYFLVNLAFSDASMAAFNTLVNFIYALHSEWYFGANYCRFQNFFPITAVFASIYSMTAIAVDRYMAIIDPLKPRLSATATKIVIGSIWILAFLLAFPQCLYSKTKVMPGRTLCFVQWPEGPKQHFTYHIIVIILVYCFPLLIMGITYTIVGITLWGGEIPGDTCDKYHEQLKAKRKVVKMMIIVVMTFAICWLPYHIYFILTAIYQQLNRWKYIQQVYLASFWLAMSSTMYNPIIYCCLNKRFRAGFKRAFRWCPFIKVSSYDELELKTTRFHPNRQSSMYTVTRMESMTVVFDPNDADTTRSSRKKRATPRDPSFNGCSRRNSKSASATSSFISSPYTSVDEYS
# Assay: [3H]SR142801 competition binding assay (hNK3 receptor binding)
# Details: [3H]SR142801 radioligand; membranes from HEK293 cells transiently expressing recombinant human NK3 receptor; Ki by Cheng-Prussoff; read-out: KiNK3 h
# Procedure: [^3H]SR^142801 Competition Binding Assay
# hNK3 receptor binding experiment were performed using [^3H]SR^142801 (Catalog No. TRK1035, specific activity: 74.0 Ci/mmol, Amersham, GE Healthcare UK limited, Buckinghamshire, UK) and membrane isolated from HEK293 cells transiently expressing recombinant human NK3 receptor. After thawing, the membrane homogenates were centrifuged at 48,000×g for 10 min at 4° C., the pellets were resuspended in the 50 mM Tris-HCl, 4 mM MnCl2, 1 μM phosphoramidon, 0.1% BSA binding buffer at pH 7.4 to a final assay concentration of 5 μg protein/well. […] At the end of the incubation, membranes were filtered onto unitfilter (96-well white microplate with bonded GF/C filter preincubated 1 h in 0.3% PEI +0.3% BSA, Packard BioScience, Meriden, Conn.) with a Filtermate 196 harvester (Packard BioScience) and washed 4 times with ice-cold 50 mM Tris-HCl, pH 7.4 buffer. Nonspecific binding was measured in the presence of 10 μM SB222200 for both radioligands. The radioactivity on the filter was counted (5 min) on a Packard Top-count microplate scintillation counter with quenching correction after addition of 45 μl of microscint 40 (Canberra Packard S.A., Zutrich, Switzerland) and shaking for 1 h. Inhibition curves were fitted according to the Hill equation: y=100/(1+(x/IC50)^nH), where nH=slope factor using Excel-fit 4 software (Microsoft). IC50 values were derived from the inhibition curve and the affinity constant (Ki) values were calculated using the Cheng-Prussoff equation Ki=IC50/(1+[L]/KD) where [L] is the concentration of radioligand and KD is its dissociation constant at the receptor, derived from the saturation isotherm. All experiments were performed in duplicate and the mean ± standard error (SEM) of the individual Ki values was calculated.
row,Compound,Ki
1,"C[C@H](Oc1ccc(C#N)cn1)[C@H]1CN(C(=O)c2ccc3[nH]cnc3c2)C[C@@H]1c1ccc(Cl)c(Cl)c1 (racemic) [Example 69, 6-{(SR)-1-[(3RS,4SR)-1-(1H-Benzoimidazole-5-carbonyl)-4-(3,4-dichloro-phenyl)-pyrrolidin-3-yl]-ethoxy}-nicotinonitrile]",28.9 nM
2,"Cc1nccc(C(=O)N2C[C@H]([C@H](C)Oc3ccc(C#N)cn3)[C@@H](c3ccc(Cl)c(Cl)c3)C2)n1 (racemic) [Example 95, 6-{(SR)l-1[-(3RS,4SR)-4-(3,4-Dichloro-phenyl)-1-(2-methyl-pyrimidine-4-carbonyl)-pyrrolidin-3-yl]-ethoxy}-nicotinonitrile]",52.4 nM
3,"Cc1cnc(C(=O)N2C[C@H]([C@H](C)Oc3ccc(C#N)cn3)[C@@H](c3ccc(Cl)c(Cl)c3)C2)cn1 (racemic) [Example 97, 6-{(SR)-1-[(3RS,4SR)-4-(3,4-Dichloro-phenyl)-1-(5-methyl-pyrazine-2-carbonyl)-pyrrolidin-3-yl]-ethoxy}-nicotinonitrile]",67.5 nM
4,"Cc1cc(C(=O)N2C[C@@H]([C@@H](C)Oc3ccc(Cl)cn3)[C@H](c3ccc(Cl)c(Cl)c3)C2)c(C)o1 (racemic) [Example 28, [(3SR,4RS)-3-[(RS)-1-(5-Chloro-pyridin-2-yloxy)-ethyl]-4-(3,4-dichloro-phenyl)-pyrrolidin-1-yl]-(2,5-dimethyl-furan-3-yl)-methanone]",59 nM
5,"C[C@@H](Oc1ccc(Cl)cn1)[C@@H]1CN(C(=O)c2ccc(C#N)cc2)C[C@H]1c1ccc(Cl)c(Cl)c1 (racemic) [Example 49, 4-[(3SR,4RS)-3-[(RS)-1-(5-Chloro-pyridin-2-yloxy)-ethyl]-4-(3,4-dichloro-phenyl)-pyrrolidin-1-carbonyl]-benzonitrile]",22.3 nM
6,"C[C@H](Oc1ccc(C#N)cn1)[C@H]1CN(C(=O)c2ccc(C(F)(F)F)nc2)C[C@@H]1c1ccc(Cl)c(Cl)c1 (racemic) [Example 72, 6-{(SR)-1-[(3RS,4SR)-4-(3,4-Dichloro-phenyl)-1-(6-trifluoromethyl-pyridine-3-carbonyl)-pyrrolidin-3-yl]-ethoxy}-nicotinonitrile]",20.9 nM
7,"Cc1ncc(C(=O)N2C[C@H]([C@H](C)Oc3ccc(Cl)cn3)[C@@H](c3ccc(F)c(F)c3)C2)cn1 [Example 103, [(3R,4S)-3-[(S)-1-(5-Chloro-pyridin-2-yloxy)-ethyl]-4-(3,4-difluoro-phenyl)-pyrrolidin-1-yl]-(2-methyl-pyrimidin-5-yl)-methanone]",25.7 nM
8,"C[C@@H](Oc1ccc(Cl)cn1)[C@@H]1CN(C(=O)c2ccc(CN(C)C)cc2)C[C@H]1c1ccc(Cl)c(Cl)c1 (racemic) [Example 42, [(3SR,4RS)-3-[(RS)-1-(5-Chloro-pyridin-2-yloxy)-ethyl]-4-(3,4-dichloro-phenyl)-pyrrolidin-1-yl]-(4-dimethylaminomethyl-phenyl)-methanone]",25.5 nM
9,"C[C@@H](Oc1ccc(Cl)cn1)[C@@H]1CN(C(=O)c2ccc(N(C)C)cc2)C[C@H]1c1ccc(Cl)c(Cl)c1 (racemic) [Example 13, [(3SR,4RS)-3-[(RS)-1-(5-Chloro-pyridin-2-yloxy)-ethyl]-4-(3,4-dichloro-phenyl)-pyrrolidin-1-yl]-(4-dimethylamino-phenyl)-methanone]",50 nM
10,"C[C@H](Oc1ccc(C#N)cn1)[C@H]1CN(C(=O)c2cnc(C(C)(C)C)nc2)C[C@@H]1c1ccc(Cl)c(Cl)c1 (racemic) [Example 98, 6-{(SR)-1-[(3RS,4SR)-1-(2-tert-Butyl-pyrimidine-5-carbonyl)-4-(3,4-dichloro-phenyl)-pyrrolidin-3-yl]-ethoxy}-nicotinonitrile]",45.7 nM
11,"Cc1cc(C(=O)N2C[C@H]([C@H](C)Oc3ccc(Cl)cn3)[C@@H](c3ccc(F)c(F)c3)C2)c(C)nn1 [Example 113, [(3R,4S)-3-[(S)-1-(5-Chloro-pyridin-2-yloxy)-ethyl]-4-(3,4-difluoro-phenyl)-pyrrolidin-1-yl]-(3,6-dimethyl-pyridazin-4-yl)-methanone]",17.7 nM

# Stronger by Ki, values ahead:
row,Ki,Compound
1,1.5 nM,"C[C@H](Oc1ccc(C(F)(F)F)cn1)[C@H]1CN(C(=O)c2ccc(-n3cccn3)nc2)C[C@@H]1c1ccc(Cl)c(Cl)c1 (racemic) [Example 80, {(3SR,4RS)-3-(3,4-Dichloro-phenyl)-4-[(SR)-1-(5-trifluoromethyl-pyridin-2-yloxy)-ethyl]-pyrrolidin-1-yl}-(6-pyrazol-1-yl-pyridin-3-yl)-methanone]"
2,5 nM,"Cc1cc(C(=O)N2C[C@@H]([C@@H](C)Oc3ccc(Cl)cn3)[C@H](c3ccc(Cl)c(Cl)c3)C2)c(C)n1C1CC1 (racemic) [Example 31, [(3SR,4RS)-3-[(RS)-1-(5-Chloro-pyridin-2-yloxy)-ethyl]-4-(3,4-dichloro-phenyl)-pyrrolidin-1-yl]-(1-cyclopropyl-2,5-dimethyl-1H-pyrrol-3-yl)-methanone]"
3,3.2 nM,"C[C@H](Oc1ccc(C(F)(F)F)cn1)[C@H]1CN(C(=O)c2ccnc(Cl)c2)C[C@@H]1c1ccc(Cl)c(Cl)c1 (racemic) [Example 82, (2-Chloro-pyridin-4-yl)-{(3SR,4RS)-3-(3,4-dichloro-phenyl)-4-[(SR)-1-(5-trifluoromethyl-pyridin-2-yloxy)-ethyl]-pyrrolidin-1-yl}-methanone]"
4,14.7 nM,"Cc1ccc(C(=O)N2C[C@H]([C@H](C)Oc3ccc(C#N)cn3)[C@@H](c3ccc(Cl)c(Cl)c3)C2)cn1 (racemic) [Example 68, 6-{(SR)-1-[(3RS,4SR)-4-(3,4-Dichloro-phenyl)-1-(6-methyl-pyridine-3-carbonyl)-pyrrolidin-3-yl]-ethoxy}-nicotinonitrile]"
5,2.6 nM,"C[C@H](Oc1ccc(C#N)cn1)[C@H]1CN(C(=O)c2ccc(-n3cccn3)nc2)C[C@@H]1c1ccc(Cl)c(Cl)c1 (racemic) [Example 65, 6-{(SR)-1-[(3RS,4SR)-4-(3 ,4-Dichloro-phenyl)-1-(6-pyrazol-1-yl-pyridine-3-carbonyl)-pyrrolidin-3-yl]-ethoxy}-nicotinonitrile]"
6,0.6 nM,"Cc1noc(-c2ccc(C(=O)N3C[C@H]([C@H](C)Oc4ccc(C(F)(F)F)cn4)[C@@H](c4ccc(Cl)c(Cl)c4)C3)cc2)n1 (racemic) [Example 83, {(3SR,4RS)-3-(3,4-Dichloro-phenyl)-4-[(SR)-1-(5-trifluoromethyl-pyridin-2-yloxy)-ethyl]-pyrrolidin-1-yl}-[4-(3-methyl-[1,2,4]oxadiazol-5-yl)-phenyl]-methanone]"
7,6.5 nM,"C[C@H](Oc1ccc(C(F)(F)F)cn1)[C@H]1CN(C(=O)c2ccc(C#N)cc2)C[C@@H]1c1ccc(Cl)c(Cl)c1 (racemic) [Example 55, 4-{(3SR,4RS)-3-(3,4-Dichloro-phenyl)-4-[(SR)-1-(5-trifluoromethyl-pyridin-2-yloxy)-ethyl]-pyrrolidine-1-carbonyl}-benzonitrile]"
8,5.4 nM,"C[C@H](Oc1ccc(C#N)cn1)[C@H]1CN(C(=O)c2ccc(C#N)nc2)C[C@@H]1c1ccc(Cl)c(Cl)c1 (racemic) [Example 52, 6-{(SR)-1-[(3RS,4SR)-4-(3,4-Dichloro-phenyl)-1-(6-cyano-pyridine-3-carbonyl)-pyrrolidin-3-yl]-ethoxy}-nicotinonitrile]"
9,6.3 nM,"Cc1cc(C(=O)N2C[C@@H]([C@@H](C)Oc3ccc(Cl)cn3)[C@H](c3ccc(Cl)c(Cl)c3)C2)ccn1 (racemic) [Example 15, [(3SR,4RS)-3-[(RS)-1-(5-Chloro-pyridin-2-yloxy)-ethyl]-4-(3,4-dichloro-phenyl)-pyrrolidin-1-yl]-(2-methyl-pyridin-4-yl)-methanone]"
10,11 nM,"Cc1ncc(C(=O)N2C[C@H]([C@H](C)Oc3ccc(Cl)cn3)[C@@H](c3ccc(Cl)c(F)c3)C2)cn1 [Example 90, {(3S,4R)-3-(4-Chloro-3-fluoro-phenyl)-4-[(S)-1-(5-chloro-pyridin-2-yloxy)-ethyl]-pyrrolidin-1-yl}-(2-methyl-pyrimidin-5-yl)-methanone]"
11,11.8 nM,"COc1ccc(C(=O)N2C[C@@H]([C@@H](C)Oc3ccc(Cl)cn3)[C@H](c3ccc(Cl)c(Cl)c3)C2)cn1 (racemic) [Example 11, [(3SR,4RS)-3-[(RS)-1-(5-Chloro-pyridin-2-yloxy)-ethyl]-4-(3,4-dichloro-phenyl)-pyrrolidin-1-yl]-(6-methoxy-pyridin-3-yl)-methanone]"
